Legend:
IPOHE = assay: Example V (second) postemergence foliar-applied ternary mixtures, greenhouse, direct seeded rice weeds; type: in vivo, Ipomoea hederacea Jacq.; details: 6 gae/ha
Procedure: (§1) The treated plants and control plants were placed in a greenhouse as described above and watered by sub-irrigation to prevent wash-off of the test compounds. After approximately 3 weeks, the condition of the test plants as compared with that of the untreated plants was determined visually and scored on a scale of 0 to 100 percent where 0 corresponds to no injury or growth inhibition and 100 corresponds to complete kill.
(§2) Colby's equation was used to determine the herbicidal effects expected from the mixtures (Colby, S. R. 1967. Calculation of the synergistic and antagonistic response of herbicide combinations. Weeds 15:20-22.).
(§3) The following equation was used to calculate the expected activity of mixtures containing three active ingredients, A, B, and C: Expected=A+B+C−((A×B+A×C+B×C)/100)+(A×B×C/10000)

CYPES = assay: as above; type: in vivo, Cyperus esculentus L.
Procedure: as §1, §2, §3

ECHCG = assay: as above; type: in vivo, Echinochloa crus-galli (L.) Beauv.; details: 280 gai/ha
From the text: Seeds or nutlets of the desired test plant species were planted in a soil matrix prepared by mixing a sandy loam or loam soil (e.g., 32 percent silt, 23 percent clay, and 45 percent sand, with a pH of about 6.5 and an organic matter content of about 1.9 percent) and calcareous grit in an 80 to 20 ratio. The soil matrix was contained in plastic pots with a volume of 1 quart and a surface area of 83.6 square centimeters (cm^2). When required to ensure good germination and healthy plants, a fungicide treatment and/or other chemical or physical treatment was applied. The plants were grown for 8-22 days in a greenhouse with an approximate 14 hr. photoperiod which was maintained at about 29° C. during the day and 26° C. during the night. Nutrients (Peters Excel® 15-5-15 5-Ca 2-Mg and iron chelate) were applied in the irrigation solution as needed and water was added on a regular basis. Supplemental lighting was provided with overhead metal halide 1000-Watt lamps as necessary. The plants were employed for testing when they reached the first through fourth true leaf stage.
Treatments consisted of the benzyl ester of 4-amino-3-chloro-5-fluoro-6-(4-chloro-2-fluoro-3-methoxy-phenyl)pyridine-2-carboxylic acid (Compound A), formulated as an SC (suspension concentrate), an ACCase inhibitor, and a third herbicidal component, each applied alone and in ternary combination. Forms of compound A were applied on an acid equivalent basis.
The ACCase inhibitor component was applied on an active ingredient basis and included cyhalofop-R-butyl formulated as Clincher® SF, fenoxaprop-p-ethyl formulated as RiceStar® HT, and profoxydim formulated as Aura® 20EC. Other herbicidal components were applied on an active ingredient or acid equivalent basis depending on the compound and included penoxsulam formulated as Grasp® SC, bentazon sodium formulated as Basagran®, triclopyr […] (TEA) salt formulated as Grandstand® R, bispyribac sodium formulated as Regiment® 80WP, imazamox ammonium formulated as Beyond®, benzobicyclon, quinclorac formulated as Facet® 75DF, glyphosate dimethylammonium (DMA) salt formulated as Durango® DMA, glufosinate ammonium formulated as Ignite® 280, fentrazamide formulated as an emulsifiable concentrate (EC), propyrisulfuron formulated as Zeta One®, and indanofan (technical grade material).
Treatment requirements were calculated based upon the rates being tested, the concentration of active ingredient or acid equivalent in the formulation, and a 12 mL application volume at a rate of 187 L/ha.
For treatments comprised of formulated compounds, measured amounts of compounds were placed individually in 25 mL glass vials and diluted in a volume of 1.25% (v/v) Agri-Dex® crop oil concentrate to obtain 12× stock solutions. […] Application solutions were prepared by adding an appropriate amount of each stock solution (e.g., 1 mL) and diluted to the appropriate final concentrations with the addition of 9 mL of an aqueous mixture of 1.25% (v/v) crop oil concentrate so that the final spray solutions contained 1.25% (v/v) crop oil concentrate.
As required, additional water and/or 97:3 v/v acetone/DMSO was added to individual application solutions so that the final acetone and DMSO concentrations of the application solutions being compared were 8.1% and 0.25%, respectively.
All stock solutions and applications solutions were visually inspected for compound compatibility prior to application. Spray solutions were applied to the plant material with an overhead Mandel track sprayer equipped with a 8002E nozzles calibrated to deliver 187 L/ha over an application area of 0.503 m^2 at a spray height of 18 inches (46 cm) above average plant canopy height. Control plants were sprayed in the same manner with the solvent blank.
The treated plants and control plants were placed in a greenhouse as described above and watered by sub-irrigation to prevent wash-off of the test compounds. […]

LEFCH = assay: as above; type: in vivo, Leptochloa chinensis (L.) Nees
Procedure: as §1, §2, §3

APESV = assay: Example IV postemergence foliar-applied, greenhouse, cereal crops weeds; type: in vivo, Apera spica-venti (L.) Beauv.
Procedure: (§4) Seeds of the desired test plant species were planted in Sun Gro MetroMix® 306 planting mixture, which typically has a pH of 6.0 to 6.8 and an organic matter content of about 30 percent, in plastic pots with a surface area of 103.2 square centimeters (cm^2). […] The plants were grown for 7-36 days in a greenhouse with an approximate 14 hour photoperiod which was maintained at about 18° C. during the day and about 17° C. during the night. Nutrients and water were added on a regular basis and supplemental lighting was provided with overhead metal halide 1000-Watt lamps as necessary. The plants were employed for testing when they reached the second or third true leaf stage.
(§5) Treatments consisted of the benzyl ester of 4-amino-3-chloro-5-fluoro-6-(4-chloro-2-fluoro-3-methoxy-phenyl)pyridine-2-carboxylic acid (Compound A), formulated as an SC, a second cereal herbicide alone and then both in combination.
(§6) Other herbicidal components were applied on an active ingredient basis and included acetyl-CoA carboxylase (ACCase)-inhibiting herbicides clodinafop-propargyl, fenoxaprop-P-ethyl, pinoxaden and tralkoxydim.
(§7) Measured aliquots of benzyl ester of 4-amino-3-chloro-5-fluoro-6-(4-chloro-2-fluoro-3-methoxy-phenyl)pyridine-2-carboxylic acid (Compound A) were placed in 25 milliliter (mL) glass vials and diluted in a volume of 1.25% (v/v) Agri-Dex® crop oil concentrate to obtain stock solutions. Compound requirements are based upon a 12 mL application volume at a rate of 187 liters per hectare (L/ha). […] Formulated compounds were applied to the plant material with an overhead Mandel track sprayer equipped with an 8002E nozzle calibrated to deliver 187 L/ha over an application area of 0.503 square meters (m^2) at a spray height of 18 inches (46 cm) above average plant canopy. Control plants were sprayed in the same manner with the solvent blank.
as §1, with “20-22 days,” for “approximately 3 weeks,”, “control” for “untreated”, “injury” for “injury or growth inhibition”
as §2
(§8) The following equation was used to calculate the expected activity of mixtures containing two active ingredients, A and B: Expected=A+B−(A×B/100)

PHAMI = assay: as above; type: in vivo, Phalaris minor Retz.
Procedure: as §4, §5, §6, §7
as §1, with “20-22 days,” for “approximately 3 weeks,”, “control” for “untreated”, “injury” for “injury or growth inhibition”
as §2, §8

KCHSC = assay: as above; type: in vivo, Kochia scoparia (L.) Schrad.
Procedure: as §4, §5, §6, §7
as §1, with “20-22 days,” for “approximately 3 weeks,”, “control” for “untreated”, “injury” for “injury or growth inhibition”
as §2, §8

COCc1cnc(C2=NC(C)(C(C)C)C(=O)N2)c(C(=O)O)c1 (stereo not drawn) [Imazamox ammonium]
Visual Weed Control (%) - 21 DAA IPOHE Obs (IPOHE): 65%
Visual Weed Control (%) - 21 DAA CYPES Obs (CYPES; 12 gae/ha): 60%

O=C(O)c1c(Cl)ccc2cc(Cl)cnc12 [Quinclorac]
Visual Weed Control (%) - 21 DAA ECHCG Obs (ECHCG): 10%
Visual Weed Control (%) - 21 DAA CYPES Obs (CYPES; 280 gai/ha): 0%

CCC1(CC2(c3cccc(Cl)c3)CO2)C(=O)c2ccccc2C1=O (stereo not drawn) [Indanofan]
Visual Weed Control (%) - 22 DAA LEFCH Obs (LEFCH; 72.5 gai/ha): 30%
Visual Weed Control (%) - 22 DAA LEFCH Obs (LEFCH; 145 gai/ha): 38%

CCOC(=O)[C@@H](C)Oc1ccc(Oc2nc3ccc(Cl)cc3o2)cc1 [Fenoxaprop-P-ethyl, ethyl(2R)-2-[4-[(6-chloro-2-benzoxazolyl)oxy]phenoxy]propanoate]
Visual Weed Control (%) - 21 DAA APESV Obs (APESV; Fenoxaprop-P-ethyl 23 gai/ha): 50%
Visual Weed Control (%) - 21 DAA APESV Obs (APESV; Fenoxaprop-P-ethyl 46 gai/ha): 83%
Visual Weed Control (%) - 21 DAA PHAMI Obs (PHAMI; Fenoxaprop-P-ethyl 23 gai/ha): 10%
Visual Weed Control (%) - 21 DAA PHAMI Obs (PHAMI; Fenoxaprop-P-ethyl 46 gai/ha): 45%
Visual Weed Control (%) - 21 DAA KCHSC Obs (KCHSC; Fenoxaprop-P-ethyl 23 gai/ha): 0%
Visual Weed Control (%) - 21 DAA KCHSC Obs (KCHSC; Fenoxaprop-P-ethyl 46 gai/ha): 0%
